Measurements reported in ChEMBL document CHEMBL1124383, “Carbamyl analogues of potent nicotinic agonists: pharmacology and computer-assisted molecular modeling study” (J Med Chem, 1989).

Test system: frog
Experiment: Potency with reference to carbamylcholine at the frog neuromuscular junction, expressed as reciprocal of equipotent molar ratio
Type: functional

| SMILES | Potency |
| --- | --- |
| C[N+]1(C)CCN(C(N)=O)CC1 | 0.15 |
| C[N+]1(C)CCC(C(N)=O)CC1 | 0.052 |
| CC(=O)C1CC[N+](C)(C)CC1 | 9.1 |
| CC(=O)C1=CC[N+](C)(C)CC1 | 50 |
| CC(=O)N1CC[N+](C)(C)CC1 | 2.6 |
| C[N+]1(C)CC=C(C(N)=O)CC1 | 0.77 |
